Values joined by “and” are separate entries in the source; they are usually repeats but may differ in a detail not shown here. Equal entries are not always repeated. Where two headings read alike, the source gives them in different places.
Assays:
[1] = system: pinch skin graft from male BALB/c donors transplanted to male C3H(H-2K) recipients; test: pinch skin graft survival test procedure; format: in vivo; settings: mean graft survival time ± S.D., dose of 4 mg/kg
Experimental: Representative compounds of this invention were also evaluated in an in vivo test procedure designed to determine the survival time of pinch skin graft from male BALB/c donors transplanted to male C3H(H-2K) recipients. The method is adapted from Billingham R. E. and Medawar P. B., J. Exp. Biol. 28:385-402, (1951). Briefly, as pinch skin graft from the donor was grafted on the dorsum of the recipient as a allograft, and an isograft was used as control in the same region. The recipients were treated with either varying concentrations of test compounds intraperitoneally or orally. Rapamycin was used as a test control. Untreated recipients serve as rejection control. The graft was monitored daily and observations were recorded until the graft became dry and formed a blackened scab. This was considered as the rejection day. The mean graft survival time (number of days±S.D.) of the drug treatment group was compared with the control group. […] Results are expressed as the mean survival time in days. Untreated (control) pinch skin grafts are usually rejected within 6-7 days. Compounds were tested using a dose of 4 mg/kg.

[2] = system: cells from the thymus of normal BALB/c mice; test: comitogen-induced thymocyte proliferation procedure (LAF); settings: for LAF ratio: ratio compared with rapamycin, greater than 1 = inhibited thymocyte proliferation to a greater extent than rapamycin; for IC50: read-out: LAF IC50
Experimental: Cells are cultured with and without various concentrations of rapamycin, cyclosporin A, or test compound. Cells are harvested and incorporated radio-activity is determined. Inhibition of lymphoproliferation is assessed as percent change in counts per minute from nondrug treated controls. For each compound evaluated, rapamycin was also evaluated for the purpose of comparison. An IC50 was obtained for each test compound as well as for rapamycin. […] The results obtained are provided as an IC50 and as the percent inhibition of T-cell proliferation at 0.1 μM. […] A positive ratio indicates immunosuppressive activity.

[3] = system: adjuvant arthritis (uninjected hind paw, T-cell mediated inflammation); test: adjuvant arthritis standard pharmacological test procedure; format: in vivo, male inbread Wistar Lewis rats; settings: uninjected paw at day 16 versus control; oral dose of 5 mg/kg
Experimental: The adjuvant arthritis standard pharmacological test procedure measures the ability of test compounds to prevent immune mediated inflammation and inhibit or treat rheumatoid arthritis. The following briefly describes the test procedure used. A group of rats (male inbread Wistar Lewis rats) are pre-treated with the compound to be tested (1 h prior to antigen) and then injected with Freud's Complete Adjuvant (FCA) in the right hind paw to induce arthritis. The rats are then orally dosed on a Monday, Wednesday, Friday schedule from day 0-14 for […]. Both hind paws are measured on days 16, 23, and 30. The difference in paw volume (mL) from day 16 to day 0 is determined and a percent change from control is obtained. […] The right hind paw inflammation, on the other hand, is caused by non-specific inflammation. Compounds were tested at a dose of 5 mg/kg.

[4] = thymocytes cultured 72 hours with PHA and IL-1, tritiated thymidine incorporation

Compound: CO[C@H]1C[C@@H]2CC[C@@H](C)[C@@](O)(O2)C(=O)C(=O)N2CCCC[C@H]2C(=O)O[C@H]([C@H](C)C[C@@H]2CC[C@@H](OC(=O)C3(C)COC(C)(C)OC3)[C@H](OC)C2)CC(=O)[C@H](C)/C=C(\C)[C@@H](O)[C@@H](OC)C(=O)[C@H](C)C[C@H](C)/C=C/C=C/C=C/1C [Example 10]
- Skin graft survival time [1]: 11.0 ± 1.3 days
- LAF ratio [2]: 0.41
- IC50 [2, 4]: 4.9 nM

Compound: CO[C@H]1CC2CC[C@@H](C)[C@@](O)(O2)C(=O)C(=O)N2CCCC[C@H]2C(=O)O[C@H]([C@H](C)C[C@@H]2CC[C@@H](OC(=O)C(C)(CO)CO)[C@H](OC)C2)CC(=O)[C@H](C)/C=C(\C)[C@@H](O)[C@@H](OC)C(=O)[C@H](C)C[C@H](C)/C=C/C=C/C=C/1C [Example 11, Rapamycin 42-ester with 2,2-bis-(hydroxymethyl)propionic acid]
- Skin graft survival time ([1]; 4 mg/kg): 11.4 ± 1.5 days and 12.0 ± 1.1 days
- Percent change in adjuvant arthritis versus control [3]: < 88%

Compound: CO[C@H]1C[C@@H]2CC[C@@H](C)[C@@](O)(O2)C(=O)C(=O)N2CCCC[C@H]2C(=O)O[C@H]([C@H](C)C[C@@H]2CC[C@@H](OC(=O)C(C)(C)CO)[C@H](OC)C2)CC(=O)[C@H](C)/C=C(\C)[C@@H](O)[C@@H](OC)C(=O)[C@H](C)C[C@H](C)/C=C/C=C/C=C/1C [Example 4, Rapamycin 42-ester with 3-hydroxy-2,2-dimethylpropionic acid]
- Skin graft survival time [1]: 10.7 ± 0.5 days
- LAF ratio [2]: 1.25
- IC50 [2, 4]: 0.8 nM

Compound: COC1CC2CCC(C)C(O)(O2)C(=O)C(=O)N2CCCCC2C(=O)OC(C(C)CC2CCC(OC(=O)C(C)(C)COC3CCCCO3)C(OC)C2)CC(=O)C(C)C=C(C)C(O)C(OC)C(=O)C(C)CC(C)C=CC=CC=C1C (centres unmarked) [Example 3, Rapamycin 42-ester with 2,2-dimethyl-3-(tetrahydropyran-2-yloxy)propionic acid]
- LAF ratio [2]: 0.34
- IC50 [2, 4]: 7.1 nM

Compound: Rapamycin 42-ester with 2,3-dihydroxypropionic acid [Example 7]
- LAF ratio [2]: 0.40
- IC50 [2, 4]: 1.4 nM

Compound: COC1CC2CCC(C)C(O)(O2)C(=O)C(=O)N2CCCCC2C(=O)OC(C(C)CC2CCC(OC(=O)C3(C)COC4(CCCCC4)OC3)C(OC)C2)CC(=O)C(C)C=C(C)C(O)C(OC)C(=O)C(C)CC(C)C=CC=CC=C1C (centres unmarked) [Example 13, Rapamycin 42-ester with 3-methyl-1,5-dioxa-spiro[5.5]undecane 3-carboxylic acid]
- LAF ratio [2]: 2.00
- IC50 [2, 4]: 0.6 nM

Compound: COC1CC2CCC(C)C(O)(O2)C(=O)C(=O)N2CCCCC2C(=O)OC(C(C)CC2CCC(OC(=O)C3COC(C)(C)OC3)C(OC)C2)CC(=O)C(C)C=C(C)C(O)C(OC)C(=O)C(C)CC(C)C=CC=CC=C1C (centres unmarked) [Example 8]
- LAF ratio [2]: 0.45
- IC50 [2, 4]: 0.76 nM

Compound: CO[C@H]1C[C@@H]2CC[C@@H](C)[C@@](O)(O2)C(=O)C(=O)N2CCCC[C@H]2C(=O)O[C@H]([C@H](C)C[C@@H]2CC[C@@H](OC(=O)CO)[C@H](OC)C2)CC(=O)[C@H](C)/C=C(\C)[C@@H](O)[C@@H](OC)C(=O)[C@H](C)C[C@H](C)/C=C/C=C/C=C/1C [Example 2, Rapamycin 42-ester with hydroxyacetic acid]
- Percent change in adjuvant arthritis versus control [3]: −88%
- LAF ratio [2]: 0.83
- IC50 [2, 4]: 1.8 nM

Compound: COC1CC2CCC(C)C(O)(O2)C(=O)C(=O)N2CCCCC2C(=O)OC(C(C)CC2CCC(OC(=O)C3COC(C)(C)O3)C(OC)C2)CC(=O)C(C)C=C(C)C(OC(=O)C2COC(C)(C)O2)C(OC)C(=O)C(C)CC(C)C=CC=CC=C1C (centres unmarked) [Example 6, Rapamycin 31,42-diester with 2,2-dimethyl[1,3]dioxalane-4-carboxylic acid]
- LAF ratio [2]: 0.5
- IC50 [2, 4]: 1.3 nM

Compound: COC1CC2CCC(C)C(O)(O2)C(=O)C(=O)N2CCCCC2C(=O)OC(C(C)CC2CCC(OC(=O)C3(C)COC4(CCCCC4)OC3)C(OC)C2)CC(=O)C(C)C=C(C)C(OC(=O)C2(C)COC3(CCCCC3)OC2)C(OC)C(=O)C(C)CC(C)C=CC=CC=C1C (centres unmarked) [Example 14, Rapamycin 31.42-diester with 3-methyl-1.5-dioxa-spiro[5.5]undecane 3-carboxylic acid]
- percent inhibition of T-cell proliferation ([2]; at 0.1 μM): 43%

Compound: Rapamycin 42-ester with 2,2-dimethyl-5-(2-trimethylsilanylethoxymethyl)[1,3]dioxane-5-carboxylic acid [Example 12]
- LAF ratio [2]: 0.05
- IC50 [2, 4]: 7.2 nM

Compound: COC1CC2CCC(C)C(O)(O2)C(=O)C(=O)N2CCCCC2C(=O)OC(C(C)CC2CCC(OC(=O)C(CO)CO)C(OC)C2)CC(=O)C(C)C=C(C)C(O)C(OC)C(=O)C(C)CC(C)C=CC=CC=C1C (centres unmarked) [Example 9, Rapamycin 42-ester with 3-hydroxy-2-hydroxymethylpropionic acid]
- LAF ratio [2]: 0.57
- IC50 [2, 4]: 0.84 nM

Compound: CO[C@H]1C[C@@H]2CC[C@@H](C)[C@@](O)(O2)C(=O)C(=O)N2CCCC[C@H]2C(=O)O[C@H]([C@H](C)C[C@@H]2CC[C@@H](O)[C@H](OC)C2)CC(=O)[C@H](C)/C=C(\C)[C@@H](O)[C@@H](OC)C(=O)[C@H](C)C[C@H](C)/C=C/C=C/C=C/1C [rapamycin, Rapamycin]
- IC50 ([2]; Mus musculus, Thymocyte, 72 h): 0.6 to 1.5 nM

Compound: COC1CC2CCC(C)C(O)(O2)C(=O)C(=O)N2CCCCC2C(=O)OC(C(C)CC2CCC(OC(=O)C3COC(C)(C)O3)C(OC)C2)CC(=O)C(C)C=C(C)C(O)C(OC)C(=O)C(C)CC(C)C=CC=CC=C1C (centres unmarked) [Example 5, Rapamycin 42-ester with 2,2-dimethyl[1,3]dioxalane-4-carboxylic acid]
- LAF ratio [2]: 0.74
- IC50 [2, 4]: 1.2 nM

Reference: patent USRE44768E1, “Rapamycin hydroxyesters” (Wyeth LLC, priority 1994, dated 2014)
